“Also recorded” adds a separate entry of the source.
What was measured:
[1] = Plasma protein binding rate by ultrafiltration, human plasma; type: in vitro ADME
Method: The glytrexate stock solution was diluted with 20% methanol (1% formic acid) to three mass concentrations of 50, 100, and 200 μg/ml for use. One hundred microliters of glytrexate solution of the corresponding concentration (3 duplicates each in parallel) was added to 900 μl of rat/human plasma, vortexed and mixed well to prepare plasma samples with plasma concentrations of 5, 10, and 20 μg/ml.
The plasma sample was placed in a constant temperature water bath at 37°C for a certain period to obtain an incubation solution. After the incubation solution was removed, it was placed on ice to maintain a low temperature, transferred to a filtrate tube (500 μl), and placed in a low-temperature refrigerated centrifuge at 4°C and 14,000 rpm for 20 min to obtain filtrate.
The test tube containing the drug concentration was incubated in a constant temperature water bath at 37°C. Each sample was obtained at 10 min, 30 min, 60 min, 120 min, 240 min, and 360 min and the drug concentration before and after ultrafiltration was determined. The plasma protein binding rate (%) = [(Cincubation solution-CUltrafiltrate)/Cincubation solution]×100%. GraphPad Prism 8 software was used to perform a one-way analysis of variance on the plasma protein binding rate of glytrexate between different mass concentrations in the same species.

[2] = Stability on incubation in artificial gastrointestinal fluids at 37°C; type: in vitro ADME; settings: up to 3 h, 100 μg/ml
Method: Blank artificial gastric fluid: hydrochloric acid (2.75 mol/L, 16.4 ml) was diluted with 800 ml of water, adjusted to the pH 1.3 with 0.1 mol/L hydrochloric acid solution, diluted with water and diluted to 1000 ml.
Artificial gastric fluid: hydrochloric acid (2.75 mol/L, 16.4 ml) was diluted with 800 ml of water, and then 10 g of pepsin was added and shaken well until dissolved. The pH was adjusted to 1.3 with 0.1 mol/L hydrochloric acid solution, and then the artificial gastric fluid solution was diluted with water to 1000 ml.
Blank artificial intestinal fluid: potassium dihydrogen phosphate (6.8 g) was diluted with 500 ml of water, and shaken until dissolved. The pH was adjusted to 6.8 with 0.1 mol/L sodium hydroxide solution, and the solution was diluted with water to 1000 ml. […]
The test tube containing the drug concentration was incubated in a constant temperature water bath at 37°C. Each sample was obtained at 0, 0.5, 1.0, 1.5, 2.0, and 3.0 h, and the drug concentration was measured. […]
Fifty microliters of the above solution was accurately drawn at different incubation time points, and 155 μl of ice-cold methanol (1% formic acid) and 5 μl of IS solution were added. […] An appropriate amount of the supernatant was placed into the sample vial, and analyzed. […]
All samples were analyzed using the established LC‒MS/MS method, and MultiQuant 3.0 software was used for data processing. […]

[3] = Stability on incubation in human plasma at 37°C; type: in vitro ADME; settings: up to 3 h, 1 μg/ml
Method: The test tube containing the drug concentration was incubated in a constant temperature water bath at 37°C. Each sample was obtained at 0, 0.5, 1.0, 1.5, 2.0, and 3.0 h, and the drug concentration was measured.
Fifty microliters of the above solution was accurately drawn at different incubation time points, and 155 μl of ice-cold methanol (1% formic acid) and 5 μl of IS solution were added. The mixture was vortexed for 60 s and centrifuged at 14,000 rpm for 10 min. Then, 165 μl of supernatant was transferred to a new tube and evaporated to dryness under a gentle stream of nitrogen at room temperature. The residue was dissolved in 50 μl 20% methanol (1% formic acid), vortexed for 60 s and centrifuged at 14,000 rpm for 10 min. An appropriate amount of the supernatant was placed into the sample vial, and analyzed. Each experiment was repeated 3 times.
The plasma sample concentration was 1 μg/ml, and the concentration of the other samples was 100 μg/ml.
All samples were analyzed using the established LC‒MS/MS method, and MultiQuant 3.0 software was used for data processing. The glytrexate concentration at each time point was calculated, the remaining percentage was calculated, and the concentration change trend was analyzed.

[4] = Storage stability of glytrexate in rat plasma (short-term, autosampler, freeze-thaw, long-term); type: in vitro ADME
Method: For short-term and long-term stability, plasma samples (LQC and HQC) were kept at room temperature for 8 h and at −20°C for 14 consecutive days, respectively. To evaluate the freeze-thaw stability, plasma samples (n = 6) were investigated through three cycles from −20°C to 25°C, and the stability of the postpreparative samples after 8 h was evaluated in autosampler vials at 4°C. The results were evaluated by calculating the peak area ratio (glytrexate/IS) of the stability samples. If glytrexate is stable in rat plasma, the accuracy (RE) should be within ±15% and the precision (RSD) < 15%.

KB tumor cells = tested on: KB tumor cells; parameters: method as in Xing et al., 2017; settings: ref Xing et al., 2017, read-out: IC50, inhibitory action on KB tumor cells; cited from earlier work
[5] = 4°C for 8 h in rat plasma, spiked 5 ng/ml
[6] = 4°C for 8 h in rat plasma, spiked 1600 ng/ml
[7] = room temperature for 8 h in rat plasma, spiked 5 ng/ml
[8] = room temperature for 8 h in rat plasma, spiked 1600 ng/ml
[9] = three freeze‒thaw cycles in rat plasma, spiked 5 ng/ml
[10] = three freeze‒thaw cycles in rat plasma, spiked 1600 ng/ml
[11] = −20°C for 14 days in rat plasma, spiked 5 ng/ml
[12] = −20°C for 14 days in rat plasma, spiked 1600 ng/ml

Nc1nc2[nH]c(CC(=O)NCC(=O)N[C@@H](CCC(=O)O)C(=O)O)cc2c(=O)[nH]1 [glytrexate, (S)-2-{2-[2-(2-amino-4-oxo-4,7-dihydro-3H-pyrrolo [2,3-d]pyrimidin-6-yl)-acetylamino]-acetylamino}-pentanedioic acid]
fraction unbound at 30 min, 5 μg/ml ([1]; 5 μg/ml, 37°C, 30 min incubation, ultrafiltration): 0.758 | fraction unbound at 30 min, 10 μg/ml ([1]; 10 μg/ml, 37°C, 30 min incubation, ultrafiltration): 0.754 | fraction unbound at 30 min, 20 μg/ml ([1]; 20 μg/ml, 37°C, 30 min incubation, ultrafiltration): 0.807 | fraction unbound ([1]; over 5, 10 and 20 μg/ml): ~0.75 | stability in artificial gastrointestinal fluid (in words) [2]: did not remain stable | stability in human plasma compared with other matrices (in words) [3]: more stable in human plasma than in human liver microsomes and artificial gastrointestinal fluid; also recorded: more stable in human plasma than in rat plasma and in human liver microsomes; also recorded: greatest amount of remaining glytrexate was found in human plasma | % Deviation after storage [4, 5]: −11.50% | Mean measured concentration after storage [4, 5]: 4.43 ± 0.21 ng/mL | % Deviation after storage [4, 6]: −2.11% | Mean measured concentration after storage [4, 6]: 1566.21 ± 100.13 ng/mL | % Deviation after storage [4, 7]: −10.23% | Mean measured concentration after storage [4, 7]: 4.49 ± 0.40 ng/mL | % Deviation after storage [4, 8]: −0.82% | Mean measured concentration after storage [4, 8]: 1586.82 ± 103.89 ng/mL | % Deviation after storage [4, 9]: −2.27% | Mean measured concentration after storage [4, 9]: 4.89 ± 0.68 ng/mL | % Deviation after storage [4, 10]: −1.81% | Mean measured concentration after storage [4, 10]: 1571.07 ± 105.54 ng/mL | % Deviation after storage [4, 11]: −6.40% | Mean measured concentration after storage [4, 11]: 4.68 ± 0.40 ng/mL | % Deviation after storage [4, 12]: −2.01% | Mean measured concentration after storage [4, 12]: 1567.82 ± 112.14 ng/mL | IC50 (KB tumor cells): 0.078 nM

Reference: paper PMC9577195, “Pharmacokinetics, bioavailability, and plasma protein binding study of glytrexate, a novel multitarget antifolate” (Frontiers in Pharmacology, 2022)
